Earlier results as cited in patent US9533050B2, “Vaginal ring including meloxicam and an agent for modulating the release of the active principle, which can be used as a continuous-use contraceptive in women” (LABORATORIOS ANDROMACO S.A., priority 2011, dated 2017).
Values belong to the compound of their own block, whether it stands above or below them.

Experiments:
ovulation = settings: women
follicular rupture = settings: 25 mg oral once daily for 9 days
[1] = 15 mg tablets orally, older women

SMILES: COc1ccc2c(c1)c(CC(=O)O)c(C)n2C(=O)c1ccc(Cl)cc1 [Indomethacin, indomethacin]
- delay of ovulation (ovulation): 2 to 12 days

- maximum plasma concentrations (7.5 mg orally, tablets): 1.05 µg/mL
- time of maximum plasma concentration (7.5 mg orally, tablets): 4.9 h
- plasma concentrations [1]: 3.2 µg/mL
- time of plasma concentration [1]: 6 h
SMILES: Cc1cnc(NC(=O)C2=C(O)c3ccccc3S(=O)(=O)N2C)s1 [meloxicam]

SMILES: CS(=O)(=O)c1ccc(C2=C(c3ccccc3)C(=O)OC2)cc1 [rofecoxib]
- inhibition of ovulation (follicular rupture): not sufficient to inhibit ovulation
- women with delay in the late follicular rupture (follicular rupture): 4 of the 6
